We go through 11 molecules from ChEMBL document CHEMBL4020792, “Sialidase inhibitory activity of diarylnonanoid and neolignan compounds extracted from the seeds of Myristica fragrans” (Bioorg Med Chem Lett, 2017).

Molecules are shown by their SMILES. pIC50, pKi: −log10 of the molar value.

Experiment [1] in a line: (§1) Inhibition of Streptococcus pneumoniae sialidase NanC using 4-methylumbelliferyl-alpha-D-N-acetylneuraminic acid as substrate after 60 mins by FRET assay. As to conditions: for pIC50: read-out: IC50; call rule not given here.
Experiment [2] relates to Streptococcus pneumoniae. The description is as §1.
Experiment [3] addresses T1, Sialidase A (Streptococcus pneumoniae, UniProt P62575). Briefly: Noncompetitive inhibition of Streptococcus pneumoniae sialidase NanA using 4-methylumbelliferyl-alpha-D-N-acetylneuraminic acid as substrate after 60 mins by Lineweaver-Burk plot/Dixon plot analysis.
Experiment [4] is described as follows: (§2) Inhibition of Streptococcus pneumoniae sialidase NanB using 4-methylumbelliferyl-alpha-D-N-acetylneuraminic acid as substrate after 60 mins by FRET assay. The note with it: for pIC50: read-out: IC50.
In experiment [5] the test system is Streptococcus pneumoniae. The experiment is described as §2.
For experiment [6], the target named is T1, Sialidase A. Kind of experiment: (§3) Inhibition of Streptococcus pneumoniae sialidase NanA using 4-methylumbelliferyl-alpha-D-N-acetylneuraminic acid as substrate after 60 mins by FRET assay.
The target of experiment [7] is Sialidase A (Streptococcus pneumoniae) (UniProt P62575). Described as §3.
Sialidase A (Streptococcus pneumoniae), sequence (P62575 whole entry): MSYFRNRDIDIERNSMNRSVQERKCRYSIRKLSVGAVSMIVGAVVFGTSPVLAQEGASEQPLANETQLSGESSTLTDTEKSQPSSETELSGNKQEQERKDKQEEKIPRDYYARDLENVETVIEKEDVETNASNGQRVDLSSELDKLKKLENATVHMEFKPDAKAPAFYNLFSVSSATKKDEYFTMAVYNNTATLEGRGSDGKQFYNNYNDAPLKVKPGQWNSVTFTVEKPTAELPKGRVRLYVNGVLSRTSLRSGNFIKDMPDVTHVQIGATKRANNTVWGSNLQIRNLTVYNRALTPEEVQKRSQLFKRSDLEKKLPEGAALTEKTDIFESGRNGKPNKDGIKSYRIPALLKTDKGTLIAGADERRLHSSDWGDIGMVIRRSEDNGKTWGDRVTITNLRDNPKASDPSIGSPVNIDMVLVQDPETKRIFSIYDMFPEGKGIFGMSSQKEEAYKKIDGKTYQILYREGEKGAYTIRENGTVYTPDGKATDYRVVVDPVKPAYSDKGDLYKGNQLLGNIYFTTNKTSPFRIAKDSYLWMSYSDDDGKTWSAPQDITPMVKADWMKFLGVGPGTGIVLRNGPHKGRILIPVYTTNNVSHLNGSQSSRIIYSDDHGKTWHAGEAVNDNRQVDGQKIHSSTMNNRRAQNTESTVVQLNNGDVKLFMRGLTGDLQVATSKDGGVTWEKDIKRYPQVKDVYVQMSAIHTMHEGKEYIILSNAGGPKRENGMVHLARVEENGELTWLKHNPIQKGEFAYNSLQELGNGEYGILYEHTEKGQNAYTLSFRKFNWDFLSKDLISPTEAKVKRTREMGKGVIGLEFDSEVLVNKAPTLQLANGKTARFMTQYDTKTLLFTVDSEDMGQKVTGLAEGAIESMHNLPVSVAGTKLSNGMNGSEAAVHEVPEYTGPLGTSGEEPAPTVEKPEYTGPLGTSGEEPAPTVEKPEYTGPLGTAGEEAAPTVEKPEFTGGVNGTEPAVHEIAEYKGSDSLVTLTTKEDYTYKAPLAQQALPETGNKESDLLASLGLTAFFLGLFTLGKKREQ
Experiment [8] is described as follows: Noncompetitive inhibition of Streptococcus pneumoniae sialidase NanB using 4-methylumbelliferyl-alpha-D-N-acetylneuraminic acid as substrate after 60 mins by Lineweaver-Burk plot/Dixon plot analysis.
Experiment [9] can be described thus: Noncompetitive inhibition of Streptococcus pneumoniae sialidase NanC using 4-methylumbelliferyl-alpha-D-N-acetylneuraminic acid as substrate after 60 mins by Lineweaver-Burk plot/Dixon plot analysis.
Experiment [10] has as its target T1, Sialidase A. Kind of experiment: Competitive inhibition of Streptococcus pneumoniae sialidase NanA using 4-methylumbelliferyl-alpha-D-N-acetylneuraminic acid as substrate after 60 mins by Lineweaver-Burk plot/Dixon plot analysis.

T1 sequence (P62575 whole entry): as above

What is called pIC50 is the negative decadic logarithm of the IC50, by convention in mol/L. The pKi is −log10 of the Ki, conventionally taken in molar units. High values mean a small Ki, low ones a large Ki. Turning to `C/C=C/c1cc(OC)c2c(c1)[C@H](C)[C@@H](c1ccc(O)c(OC)c1)O2` [LICARIN A], the pIC50 was 3.95 in experiment [1], 4.02 in experiment [4] and 5.10 against Sialidase A [6]. In addition, the inhibition result (with Streptococcus pneumoniae [2]; in the experiment with Streptococcus pneumoniae [5]; in [7]) was “Dose-dependent effect” in each case. At Sialidase A [3], this molecule had a pKi of 5.03.

As to `C/C=C/c1cc(OC)c2c(c1)[C@H](C)[C@@H](c1cc(OC)c3c(c1)OCO3)O2`, the negative logarithm of the IC50 (pIC50) is 3.50 in [1], 4.04 in experiment [4] and 4.35 against Sialidase A [6]. The inhibition entry (in the experiment on Streptococcus pneumoniae [2]; with Streptococcus pneumoniae [5]; in experiment [7]) was “Dose-dependent effect” each time. On Sialidase A [3], this molecule showed a pKi of 4.32.

On to `C=CCc1cc(O)c(OC)c(O)c1`, for which the pIC50 in experiment [1] was 4.22; in experiment [4], 4.57; at Sialidase A [6], 5.70. In addition, the inhibition result (in the experiment on Streptococcus pneumoniae [2]; in the experiment with Streptococcus pneumoniae [5]; in experiment [7]) was “Dose-dependent effect” each time. Moreover, the results for the pKi (at Sialidase A [3]; in experiment [8]; in experiment [9]) were 5.31, 4.13 and 4.04, respectively.

Regarding `O=C(CCCCCCCCc1ccc(O)cc1)c1c(O)cccc1O` [MALABARICONE B], the pIC50 in experiment [1] was 4.84; in experiment [4], 5.24; on Sialidase A [6] it was 6.40. The inhibition result (in the experiment on Streptococcus pneumoniae [2]; with Streptococcus pneumoniae [5]; in [7]) was “Dose-dependent effect” in each case. Besides, the negative-log Ki (pKi) on Sialidase A [10] was 6.30; in experiment [8], 5.25; in experiment [9], 5.24.

For `COc1cc([C@H]2O[C@@H](c3ccc(O)c(OC)c3)[C@@H](C)[C@@H]2C)ccc1O`, the pIC50 in experiment [1] was 3.56; in [4] it was 3.48; at Sialidase A [6], 4.43. The inhibition entry (in the experiment on Streptococcus pneumoniae [2]; with Streptococcus pneumoniae [5]; in experiment [7]) was “Dose-dependent effect” each time. The molecule further gave a pKi at Sialidase A [3] of 4.66.

In the case of `C/C=C/c1cc(OC)c2c(c1)[C@H](C)[C@@H](c1ccc3c(c1)OCO3)O2` [(-)-LICARIN B], the pIC50 in [1] was 4.51; in experiment [4], 4.85; at Sialidase A [6], 5.82. Further, the inhibition result (in the experiment with Streptococcus pneumoniae [2]; in the experiment on Streptococcus pneumoniae [5]; in experiment [7]) was “Dose-dependent effect” throughout. In addition, the pKi on Sialidase A [3] is 5.89; in experiment [8] it was 4.87; in [9], 4.92.

As for `COc1cc([C@@H](O)[C@@H](C)Oc2c(OC)cc(/C=C/CO)cc2OC)ccc1O`, the pIC50 in experiment [1] is 4.61; in experiment [4] it was 4.68; on Sialidase A [6], 5.80. Further, the inhibition entry (with Streptococcus pneumoniae [2]; with Streptococcus pneumoniae [5]; in experiment [7]) was “Dose-dependent effect” throughout. Besides, the pKi is 5.52 at Sialidase A [3], 4.41 in experiment [8] and 4.42 in experiment [9].

As for `C=CCc1cc(OC)c(O)c(OC)c1` [METHOXYEUGENOL], the negative logarithm of the IC50 (pIC50) in experiment [1] was 4.47; in experiment [4] it was 4.11; against Sialidase A [6], 5.16. Further, the inhibition result (with Streptococcus pneumoniae [2]; with Streptococcus pneumoniae [5]; in experiment [7]) was “Dose-dependent effect” in each case. Besides, the pKi is 5.38 at Sialidase A [3] and 4.52 in [9].

On to `C=CCc1cc(OC)c(O[C@H](C)[C@H](OC(C)=O)c2ccc(OC)c(OC)c2)c(OC)c1`, for which the IC50 entry in experiment [1] and in experiment [4] was “Not Active” in each case. The negative-log IC50 (pIC50) against Sialidase A [6] is 3.53.

Take `O=C(CCCCCCCCc1ccc(O)c(O)c1)c1c(O)cccc1O` [MALABARICONE C]: the pIC50 in [1] was 5.54; in [4] it was 5.44; at Sialidase A [6], 6.52. Further, the inhibition result (in the experiment on Streptococcus pneumoniae [2]; in the experiment on Streptococcus pneumoniae [5]; in experiment [7]) was “Dose-dependent effect” throughout. Moreover, the pKi at Sialidase A [10] is 7.00; in [8], 5.52; in experiment [9] it was 5.68.

For the molecule `C=CCc1cc(OC)c(O[C@@H](C)[C@H](O)c2ccc(O)c(OC)c2)c(OC)c1`, the pIC50 in experiment [1] is 3.99; in [4], 3.64; against Sialidase A [6], 4.59. Also, the inhibition result (in the experiment on Streptococcus pneumoniae [2]; in the experiment on Streptococcus pneumoniae [5]; in experiment [7]) was “Dose-dependent effect” each time. In addition, the pKi on Sialidase A [3] is 4.82.
